“And” between values parts separate entries of the source, which are not always exact repeats. Identical values can stand only once. “Also recorded” adds a separate entry of the source. Counter-ions that a name gives are not always drawn. Like-named read-outs stand apart in the source and are kept apart here.
How the values were obtained:
[1] = Comparative tests of antiarrhythmic action, neurotoxicity and side effects (general statements); conditions: general statement
[2] = French Pat. No. 1,566,045; cited from earlier work
[3] = Dahlbom and Dolby, Acta Pharm. Suecica (1969); cited from earlier work
[4] = Interaction with electro shock-induced seizure; format: in vivo; conditions: 30 volts
Excerpt: (§1) The lack of interaction of Compound I with other centrally active drugs may also be taken as an indication of its lack of activity in the CNS.

[5] = in vivo
[6] = Summary comparison with lidocaine: side effects; conditions: summary table
[7] = Interaction with Indoklon-induced seizures; format: in vivo; conditions: Indoklon by inhalation 30 minutes later
Excerpt: as §1

[8] = Occlusion-induced arrhythmias in conscious dogs, oral administration; format: in vivo; conditions: oral 15-20 mg/kg in 4 to 6 gelatin capsules, all cases
Procedure: Tests were also carried out to determine the effect of oral administration of Compound I on occlusion induced arrhythmias in conscious dogs.
Arrhythmia was induced by occlusion of the left anterior descending artery, as above described. Following this, Compound I was administered orally to the animals at the rate of 15-20 mg/kg, the dose being divided among 4 to 6 gelatin capsules, without prior treatment such as micronization or admixture with a diluent or carrier.

normal heart [9] = experiment: Effect on normal heart (ECG) in nembutal-anesthetized cats; format: in vivo
Procedure: Nembutal anesthetized cats responded differently. […] If drug administration was discontinued at this stage, then the severe toxic effects would disappear after 40 minutes, the heart reverting to normal sinus rhythm.

normal heart [10] = experiment: Effect on normal heart (ECG) in conscious healthy dogs; format: in vivo
Procedure: The effect of Compound I on the normal heart was determined by the administration of the compound as a bolus intravenous injection to conscious healthy dogs for which lead II of the electrocardiogram was monitored for as long as 2 hours after injection.
In one case, a single dose of 5 mg/kg was administered rapidly in order to achieve a high but transient concentration in the heart. […] The ECG record reverted to normal within 15 minutes.

[11] = Summary comparison with lidocaine: ouabain-induced arrhythmia; format: in vivo; conditions: i.v.
normal heart [12] = experiment: Effect on normal heart (ECG) in nembutal-anesthetized dog; format: in vivo; conditions: nembutal 25 mg/kg; cumulative i.v. dose 6 mg/kg over 30 minutes
[13] = Pharmacokinetic parameters in conscious dogs with occlusion-induced arrhythmia; format: in vivo; conditions: dog, blood, iv
Procedure: The pharmacokinetic parameters of Compound I were determined in conscious dogs suffering from occlusion-induced arrhythmia. After intravenous injection of a single therapeutic dose, venous blood samples were withdrawn at given intervals, heparinized and analyzed for their content of Compound I by gas chromatography.

[14] = Occlusion-induced arrhythmias in conscious dogs, parenteral administration; format: in vivo
Procedure: The effect of parenteral administration of Compound I on occlusion-induced arrhythmias in conscious dogs was determined. Occulsion was achieved by ligation of the left anteria descending coronary artery on 5 dogs.
Compound I was administered once within 24 hours and once within 48 hours after ligation.

[15] = Interaction with metrazole-induced convulsions; format: in vivo; conditions: metrazole 100 mg/kg; i.p. 30, 60 and 90 minutes prior to metrazole
Excerpt: as §1

[16] = Ouabain-induced arrhythmia in the cat; format: in vivo; parameters: key to S.R. (sinus rhythm), Lidocaine-treated / S.R. (sinus rhythm), Compound I treated: +: denotes return to the rhythm
conscious, healthy dogs = conditions: dog, in vivo, iv, 5 mg/kg
[17] = in vivo; remark: listed apart in the source
[18] = Biological availability by the oral route in dog; format: in vivo
Procedure: The biological availability of Compound I administered by the oral route was determined first in a conscious, healthy dog that received a dose of 7.5 mg/kg subdivided in 6 gelatin capsules that were slipped down its throat.

[19] = Acute toxicity, i.p. injection in mice; conditions: mouse, in vivo, ip, 0.5% solution, male albino ICR mice, probit analysis
Procedure: The toxicity of Compound I was determined by i.p. injection of a 0.5% solution of the drug into male, albino ICR mice weighing 20-25 g each. A group of six mice was used for each dose.

[20] = Interaction with oxotremorine-induced tremors; format: in vivo; conditions: oxotremorine 20 μg/kg i.p.; given i.p. 30 minutes prior
Excerpt: as §1

[21] = Ouabain-induced arrhythmia in dogs; format: in vivo; parameters: key to S.R. (sinus rhythm), Compound I treated: +: denotes return to the rhythm
Procedure: In other experiments using mongrel dogs, the animals were anesthetized by an i.v. injection of nembutal (25 mg/kg), then arrhythmia was induced by the administration of decreasing doses of ouabain at 30 minute intervals, 40, 20 and 10 μg/kg. Treatment with Compound I was then carried out as described for cats.

[22] = Effect of Compound II in arrhythmia induced by coronary occlusion; format: in vivo; conditions: dog 15 kg, 24 hours after ligation; i.v. 3 mg per kg
Excerpt: Arrhythmia was induced in a dog of 15 kg body weight, by ligation of the left anteria descending coronary artery with a silk thread number 000.

[23] = Effect of Compound II in drug-induced (ouabain) arrhythmia; format: in vivo; conditions: 2.7 kg cat, nembutal; ouabain 70 μg per kg; i.v. 1.1 mg per kg
Procedure: Arrhythmia was induced in 2.7 kg cat, previously anesthetized with nembutal, by the slow infusion of ouabain over a period of one hour and to a total dose of 70 μg per kg.

albino mice = experiment: Symptoms after intraperitoneal administration to albino mice; format: in vivo; conditions: i.p.
Excerpt: This is confirmed by the tests of compound II, namely the hydrochloride of 2,6-xylidide of quinuclidine-2-carboxylic acid, which was produced both by the method of French Pat. No. 1,566,045, and by the method of the present invention. Administration of Compound II to albino mice by the intraperitoneal route induced the following symptoms: […]

[24] = dog, conditions as Table 1, hydrochloride
[25] = cat 13, lidocaine HCl single i.v. injection 1.6 mg/kg
[26] = cat, lidocaine HCl single i.v. injection 4 mg/kg, 4 mg/kg

## Cc1cccc(C)c1NC(=O)C1CC2CCN1CC2 (centres unmarked) [2,6-xylidide of quinuclidine-2-carboxylic acid]
[1]
  cardiac antiarrhythmic action: devoid of useful cardiac antiarrhythmic action; also recorded: devoid of useful antiarrhythmic properties; also recorded: devoid of any useful cardiac antiarrhythmic effect
  neurotoxicity: neurotoxic
[1]; listed as 2,6,-xylidide of quinuclidine-2-carboxylic acid
  cardiac antiarrhythmic action: completely devoid of any useful antiarrhythmic action
[2]
  action indicated: antiarrhythmic and local anaesthetic action

## Cc1cccc(C)c1NC(=O)C1CN2CCC1CC2 (centres unmarked) [2,6-xylidide of quinuclidine-3-carboxylic acid]
[1]
  cardiac antiarrhythmic action: pronounced cardiac antiarrhythmic activity; also recorded: highly pronounced cardiac antiarrhythmic action
[3]
  pharmacological effect: no pharmacological effect except for a weak local anaesthetic action

## Cc1cccc(C)c1NC(=O)C1CN2CCC1CC2 (centres unmarked) [Compound I, 2,6-xylidide of quinuclidine-3-carboxylic acid hydrochloride]
Solubility
  solubility: highly soluble
[4]
  effect against electro shock-induced seizure: equally ineffective
[5]
  Side effects: Hypotension: none
[6]
  Side effects: CNS-effects: none
  Side effects: Emesis: partial
[7]
  effect against Indoklon-induced seizures: equally ineffective
[8]
  restoration of normal sinus rhythm: fully effective in the restoration of normal sinus rhythm
Normal heart [9]; cumulative dose 6 mg/kg
  effect on ECG: broadening of the QRS occurred but sinus rhythm was maintained
Normal heart [9]; cumulative dose 10.5 mg/kg
  effect on ECG: broadening of the QRS occurred but sinus rhythm was maintained
Normal heart [9]; cumulative dose 16.5 mg/kg, hydrochloride, 16.5 mg/kg
  effect on ECG / conduction: second degree AV block occurred; also recorded: Atrial conduction slowed down
Normal heart [9]; drug administration discontinued after 16.5 mg/kg cumulative, heart reverting to normal sinus rhythm
  time to disappearance of severe toxic effects: 40 min
Normal heart [9]; further […], total cumulative dose 23.5 mg/kg
  effect on ECG / heart: high degree AV block, followed by cardiac standstill
Normal heart [9]; total dose of 3 mg/kg in small increments over 34 minutes
  effect on ECG: leftward shift of the QRS complex
Normal heart [10]; dog, in vivo, 5 mg/kg
  effect on ECG: Broadening of the QRS complex was observed
  time for ECG record to revert to normal: ≤ 15 min
Normal heart [10]; dog, in vivo, iv, 3 mg/kg
  change in the ECG: no change in the ECG
Normal heart [10]; single dose of 5 mg/kg administered rapidly, one case
  other signs of overt toxicity: no other signs of overt toxicity
[11]
  Duration of effect, ouabain-induced arrhythmia: about 1 hour
  Onset of effect, ouabain-induced arrhythmia: about 2 minutes
Normal heart [12]
  change in the ECG: no change in the ECG
[13]; i.v. single therapeutic dose, conscious arrhythmic dogs, venous blood, GC, read-out: Biological half-life (t1/2)
  half-life: 4 to 5 h
[13]; i.v. single therapeutic dose, conscious arrhythmic dogs, read-out: t1/2 for distribution
  half-life: 0.0833 h
[13]; summary table, read-out: t1/2 for distribution
  half-life: 0.0833 h
[13]; summary table, read-out: t1/2 for elimination
  half-life: 4 to 5 h
[13]; summary table, read-out: volume of distribution
  Vd: 0.2 L/kg
[14]; i.v.
  Onset of effect, occlusion-induced arrhythmia within 1st 24 hr.: 2 min
[14]; one bolus i.v. injection of 3 mg/kg within 24 hours after ligation
  duration of full, uninterrupted sinus rhythm: ≤ 20 min
[15]
  effect on metrazole-induced convulsions: did not affect metrazole-induced convulsions
[16]; cat 1, 0.5 mg/kg used
  B.P. (blood pressure), Compound I treated: 80/60
  Duration (period of observation from onset of reversal of arrhythmia): 10 min
  H.R. (heart rate), Compound I treated: 100 per min
  S.R. (sinus rhythm), Compound I treated: +
[16]; cat 3, bolus i.v. 1 mg/kg, after ouabain
  Duration (period of observation from onset of reversal of arrhythmia): 240 min
[16]; cat, single dose 1 mg/kg, 10 minutes after constant arrhythmia, ouabain 70-90 μg/kg cumulative
  improvement of the ECG: marked improvement of the ECG that lasted much longer than any improvement achieved with lidocaine
[16]; cats marked ##, additional dose 1 mg/kg for 2, 7 and 0.5 mg/kg for 10
  reappearance of arrhythmia and response to additional dose: suppressed again with an additional dose of EO-122
conscious, healthy dogs
  change in posture, behavior or mood: no significant change in posture, behavior or mood from control
[17]
  side effects: absence of side effects such as hypotension and CNS stimulation
[18]; conscious arrhythmic dogs, oral, relative to healthy dog
  bioavailability in conscious arrhythmic dogs: of the same order
[18]; dog, in vivo, po, summary table
  bioavailability: ~80%
[18]; in vivo, oral 7.5 mg/kg in 6 gelatin capsules, conscious healthy dog, read-out: Peak blood concentration
  Cmax: 1500 to 2000 ng/mL
[19]
  LD50: 60 ± 5 mg/kg
[20]
  effect on oxotremorine-induced tremors: did not affect oxotremorine-induced tremors
[21]; dog, conditions as Table 1
  H.R. (heart rate), Compound I treated: 170 per min
  S.R. (sinus rhythm), Compound I treated: +
[21]; [24]
  B.P. (blood pressure), Compound I treated: 100/80 and 140/110
  Duration (period of observation from onset of reversal of arrhythmia): 40 min and 25 min
[21]; dogs 14, 15, one i.v. injection of […]
  reappearance of arrhythmia and response to additional dose: Arrhythmia reappeared after this period but was suppressed
[21]; dogs, 1 mg/kg single doses
  reversal of VT to normal sinus rhythm: reversal of VT to normal sinus shythm was achieved

## Cc1cccc(C)c1NC(=O)C1CC2CCN1CC2 (centres unmarked) [Compound II, 2,6-xylidide of quinuclidine-2-carboxylic acid hydrochloride]
[22]
  neurotoxicity: clear signs of neurotoxicity such as undue excitement and lateral movements of the head
  response in the electrocardiogram: only a fleeting response in the electrocardiogram with only a few signs of improvement
[23]
  effect in ouabain-induced arrhythmia: precipitated ventricular fibrillation and death
Albino mice; 100 mg per kg
  cause of death: respiratory failure
Albino mice; albino mice
  lethal dose: 100 mg. per kg
Albino mice; dose range 20-30 mg per kg
  Effects: increased locomotion, excitation
Albino mice; dose range 40-60 mg per kg, hydrochloride
  Effects: pronounced neurotoxicity, ataxia; also recorded: partial paralysis

## CCN(CC)CC(=O)Nc1c(C)cccc1C [Lidocaine]
[6]
  Side effects: Emesis: partial
  Side effects: Hypotension: about 20%
[11]
  Onset of effect, ouabain-induced arrhythmia: about 2 minutes
[14]; i.v.
  Onset of effect, occlusion-induced arrhythmia within 1st 24 hr.: 2 min
  Single therapeutic dose for suppression of Occlusion-induced arrhythmia within 1st 24 hr. after operation: often ineffective
[14]; same animals, bolus i.v. 3 mg/kg
  effect of lidocaine on occlusion-induced arrhythmia: either completely ineffective or of ultra-short duration
[16]; [25]
  B.P. (blood pressure), Lidocaine-treated: 130/100
  Duration (period of observation from onset of reversal of arrhythmia): 3 min
  H.R. (heart rate), Lidocaine-treated: 80 per min
  S.R. (sinus rhythm), Lidocaine-treated: +
[16]; [26]
  B.P. (blood pressure), Lidocaine-treated: 60/40 and 120/80
  H.R. (heart rate), Lidocaine-treated: 150 per min and 110 per min
[16]; cats 12 and 13
  reappearance of arrhythmia after lidocaine: Arrhythmia reappeared
